Source: patent publication US20220387457A1 (Qlaris Bio, Inc., priority 2020, published 2022)
Where two headings read alike, the source gives them in different places.

How the values were obtained:
[1] = Plasma pharmacokinetics of CKLP1 and levcromakalim after topical dosing in hound dogs; format: in vivo, hound dog; conditions: for AUC / AUC(0-t) / Cmax / Tmax / half-life: hound, dog
Method: To assess the pharmacokinetic parameters, hound dogs (n=3) were treated with 50 μL topical ocular administration of 10 mM CKLP1 or vehicle (PBS) (n=2) in both eyes, once daily for eight days. Blood (approximately 3 mL) was collected in heparin blood collection tubes at eight different time points (5 minutes, 15 minutes, 30 minutes, 60 minutes, 2 hours, 4 hours, 8 hours and 24 hours) following treatment on days 1, 4 and 8. Plasma was separated from the blood by centrifugation at 2000 rpm for 5 minutes.
Immediately prior to analysis, tissues were thawed and their weight was measured. PBS was added at double the tissue volume homogenized in a rotor stator homogenizer for 30 seconds. […] Detection was accomplished using positive electrospray ionization with multiple-reaction monitoring (MRM). […] Data were acquired and analyzed using Waters MassLynx v4.1 software.

[2] = system: normotensive hound dogs (IOP); test: Extended-dose (61 days) study of CKLP1 on IOP in hound dogs; format: in vivo, hound dog
Method: To evaluate the effect of IOP lowering long-term, hound dogs (n=5) were treated with 10 mM CKLP1 in one eye and vehicle (PBS) in the contralateral eye once daily for 61 consecutive days. […] On average, IOP was reduced by 18.9±1.3% (reduction of 3.0±0.5 mmHg; p<0.001) in all five hound dogs over the entire treatment period. Additionally, no significant change in systolic (baseline, 141.0±6.7; treatment, 138.9±9.5; p=0.56) or diastolic (baseline, 80.1±8.9; treatment, 78.1±5.9; p=0.76) blood pressure was observed during the treatment period (FIG. 7B). Hound dogs were also evaluated for eye redness, swelling of the eye or eyelids, unusual discharge from eye and overall food intake.
For the extended dose study, baseline IOPs were measured three times daily for 5 consecutive days. The average of the three measurements was recorded as the daily IOP and averaged over the 5 days for the final pre-treatment value. Following baseline IOP measurements, dogs (n=5) were treated with 10 mM CKLP1 in one eye, while the contralateral eye received vehicle (PBS). IOP was measured at least three times every week at times corresponding to 1, 4, and 23 hours post treatment. Blood pressure was measured three times each week at the 4 hour post treatment time point.

[3] = system: human alkaline phosphatase (ALP); test: Conversion of CKLP1 by human alkaline phosphatase, LC/MS-MS, pH 7.4; format: biochemical; conditions: up to 2 hours
Method: Conversion of CKLP1 (200 μM-5.0 mM) was examined by LC/MS-MS following incubation at pH 7.4 with either human alkaline phosphatase (ALP), acid phosphatase, or 5′-nucleotidase (2.01 nM-1.0 μM) for up to 2 hours.

[4] = system: beagle dogs; test: Safety findings, 28-day topical ophthalmic dosing in beagle dogs; format: in vivo, beagle dog
Method: In the study, dogs (3 males and 3 females) received bilateral daily topical administration of 40 μL/eye of 2.0%, 4.0%, or 8.0% as measured in mg/mL (equivalent to 0.8, 1.6, or 3.2 mg CKLP1 per eye) of CKLP1 in phosphate buffered saline. Based on an average male dog weight of 7.9 kg at the start of the study, these doses were equivalent to 0.20 mg/kg, 0.41 mg/kg, or 0.81 mg/kg and based on an average female dog weight of 6.0 kg at the start of the study, these doses were equivalent to 0.27 mg/kg, 0.53 mg/kg, or 1.07 mg/kg. Blood was collected for toxicokinetic analysis pre-dose and at 1, 2, 4, 8, 12, and 24 hours post dosing on days 1 and 28. In addition, 2 animals of each gender were allowed 336 hours (14 days) of recovery time following the final dose, at which point final blood samples were obtained.

[5] = plasma, topical or ocular, 10 mM CKLP1, 50 µL in each of both eyes, levcromakalim after topical 10 mM CKLP1 once daily, Day 1
[6] = plasma, topical or ocular, 10 mM CKLP1, 50 µL in each of both eyes, levcromakalim after topical 10 mM CKLP1 once daily, Day 4
[7] = plasma, topical or ocular, 10 mM CKLP1, 50 µL in each of both eyes, levcromakalim after topical 10 mM CKLP1 once daily, Day 8
[8] = levcromakalim after topical 10 mM CKLP1 once daily, Day 1
[9] = levcromakalim after topical 10 mM CKLP1 once daily, Day 4
[10] = levcromakalim after topical 10 mM CKLP1 once daily, Day 8
[11] = 10 mM CKLP1 once daily, 61 days, vs vehicle eye
[12] = CKLP1, topical 10 mM CKLP1 once daily, Day 1
[13] = CKLP1, topical 10 mM CKLP1 once daily, Day 4
[14] = CKLP1, topical 10 mM CKLP1 once daily, Day 8
[15] = plasma, topical or ocular, 10 mM CKLP1, 50 µL in each of both eyes, CKLP1, topical 10 mM CKLP1 once daily, Day 1
[16] = plasma, topical or ocular, 10 mM CKLP1, 50 µL in each of both eyes, CKLP1, topical 10 mM CKLP1 once daily, Day 4
[17] = plasma, topical or ocular, 10 mM CKLP1, 50 µL in each of both eyes, CKLP1, topical 10 mM CKLP1 once daily, Day 8

## CC1(C)Oc2ccc(C#N)cc2[C@@H](N2CCCC2=O)[C@@H]1O [Levcromakalim, levcromakalim, reference compound]
[1]; after topical 10 mM CKLP1
  Maximum concentration of levcromakalim in plasma: 1.2 ± 0.2 ng/mL
[1]; after topical CKLP1
  concentration of levcromakalim found in plasma: 1 ng/mL
[1]; plasma, topical or ocular, 10 mM
  AUC: 3.88 ng·h/mL
[1]; [5]
  AUC(0-t): 5.09 ng·h/mL
  Cmax: 1.3 ng/mL
[1]; plasma, topical or ocular, 10 mM CKLP1, 50 µL in each of both eyes, levcromakalim after topical 10 mM CKLP1 once daily, Day 1, read-out: Tmax (converted)
  Tmax: 2 h
[1]; [6]
  AUC(0-t): 6.3 ng·h/mL
  Cmax: 1.4 ng/mL
[1]; plasma, topical or ocular, 10 mM CKLP1, 50 µL in each of both eyes, levcromakalim after topical 10 mM CKLP1 once daily, Day 4, read-out: Tmax (converted)
  Tmax: 2 h
[1]; [7]
  AUC(0-t): 2.67 ng·h/mL
  Cmax: 1 ng/mL
[1]; plasma, topical or ocular, 10 mM CKLP1, 50 µL in each of both eyes, levcromakalim after topical 10 mM CKLP1 once daily, Day 8, read-out: Tmax (converted)
  Tmax: 2 h
[1]; plasma, topical or ocular, 10 mM, levcromakalim after topical 10 mM CKLP1 once daily, Day 1
  half-life: 1.24 h
[1]; plasma, topical or ocular, 10 mM, levcromakalim after topical 10 mM CKLP1 once daily, Day 4
  half-life: 1.46 h
[1]; plasma, topical or ocular, 10 mM, levcromakalim after topical 10 mM CKLP1 once daily, Day 8
  half-life: 2.11 h
[1]; plasma, topical or ocular, 10 mM, time of maximum concentration (Tmax) of levcromakalim, after topical 10 mM CKLP1
  Tmax: ~2 h
[1]; plasma, topical, 10 mM, as stated in the summary
  half-life: 2 h
[1]; [8]
  Clast: 0.1 ng/mL
  Tlast: 480 min
[1]; [9]
  Clast: 0.1 ng/mL
  Tlast: 480 min
[1]; [10]
  Clast: 0.5 ng/mL
  Tlast: 240 min

## CC1(C)Oc2ccc(C#N)cc2[C@@H](N2CCCC2=O)[C@@H]1OP(=O)(O)O [CKLP1]
[2]; 10 mM CKLP1 once daily, 61 consecutive days
  average IOP in treated eye: 12.9±2.0 mmHg
[2]; 10 mM CKLP1 once daily, 61 days
  eye redness, swelling of the eye or eyelids, unusual discharge from eye, food intake: No notable findings
[2]; [11]
  IOP reduced by: 18.9±1.3%
  IOP reduction: 3.0±0.5 mmHg
[2]; dogs (FIG. 7A), same effect in African green monkeys (FIG. 8A)
  return of IOP to baseline after CKLP1 administration: greater than 24 hours
[2]; hound dogs
  IOP lowered by (summary): approximately 19%
[3]; CKLP1 200 μM-5.0 mM
  rate constant for catalytic conversion (kcat): 0.25 s⁻¹
[3]; CKLP1 200 μM-5.0 mM, read-out: Michaelis constant (Km)
  Km: 630 µM
[3]; human ALP
  conversion of CKLP1 to levcromakalim: converted
[1]; [12]
  Clast: 2.6 ng/mL
  Tlast: 480 min
[1]; [13]
  Clast: 1.4 ng/mL
  Tlast: 1440 min
[1]; [14]
  Clast: 0.3 ng/mL
  Tlast: 1450 min
[1]; [15]
  AUC(0-t): 72.9 ng·h/mL
  Cmax: 10.3 ng/mL
[1]; plasma, topical or ocular, 10 mM CKLP1, 50 µL in each of both eyes, CKLP1, topical 10 mM CKLP1 once daily, Day 1, read-out: Tmax (converted)
  Tmax: 1 h
[1]; [16]
  AUC(0-t): 103 ng·h/mL
  Cmax: 12.2 ng/mL
[1]; plasma, topical or ocular, 10 mM CKLP1, 50 µL in each of both eyes, CKLP1, topical 10 mM CKLP1 once daily, Day 4, read-out: Tmax (converted)
  Tmax: 2 h
[1]; [17]
  AUC(0-t): 86.7 ng·h/mL
  Cmax: 8.9 ng/mL
[1]; plasma, topical or ocular, 10 mM CKLP1, 50 µL in each of both eyes, CKLP1, topical 10 mM CKLP1 once daily, Day 8, read-out: Tmax (converted)
  Tmax: 1 h
[1]; plasma, topical or ocular, 10 mM, CKLP1, topical 10 mM CKLP1 once daily, Day 1
  half-life: 3.01 h
[1]; plasma, topical or ocular, 10 mM, CKLP1, topical 10 mM CKLP1 once daily, Day 4
  half-life: 7.53 h
[1]; plasma, topical or ocular, 10 mM, CKLP1, topical 10 mM CKLP1 once daily, Day 8
  half-life: 4.23 h
[1]; plasma, topical or ocular, 10 mM, topical 10 mM CKLP1, read-out: time of maximum concentration (Tmax) of CKLP1
  Tmax: ≤ 1 h
[1]; topical or ocular, CKLP1 in plasma, topical 10 mM CKLP1
  AUC: 87.7 ng·h/mL
[1]; topical 10 mM CKLP1
  AUC of CKLP1 relative to levcromakalim: 22.4 fold
[1]; topical 10 mM CKLP1, mean of days 1, 4, 8
  Maximum concentration of CKLP1 in plasma: 10.5 ± 1.7 ng/mL
[1]; topical CKLP1
  conversion of CKLP1 to levcromakalim, estimate from blood concentrations: 10%
[4]; 3.2 mg/eye/dose (8%)
  non-adverse ocular effects: slight to moderate redness (congestion)
[4]; 2 females at 3.2 mg/eye/dose (8%)
  microscopic findings, lacrimal gland: mild lacrimal gland acinar atrophy
[4]; 14-day recovery period
  reversibility of ocular findings: all ocular findings were fully recovered
[4]; males at ≥1.6 mg/eye/dose (4%) and 1 female at 3.2 mg/eye/dose (8%)
  microscopic findings, corneal epithelium: mild increased mitoses in the corneal epithelium
[4]; topical, 28 days, % as measured in mg/mL
  no-observed-adverse-effect level (NOAEL): 8.0%
